Measurements published in patent US10918610B2, “Compounds and methods of promoting myelination” (Case Western Reserve University, priority 2017, dated 2021).

Test system: newly myelinated fibers within the spinal cord
Assay: LPC-induced focal demyelination in the dorsal column of the spinal cord
Assay type: in vivo, C57BL/6 female mice
Conditions: 25 mg/kg intraperitoneally daily, days 4 to 13 post laminectomy, versus vehicle
Protocol: Focal demyelination in the dorsal column of the spinal cord was induced by the injection of 1% LPC solution. 12 week old C57BL/6 female mice were anesthetized using isoflurane and T10 laminectomies were performed. 1 μl of 1% LPC was infused into the dorsal column at a rate of 15 al/hour. At day 4, animals were randomized into treatment groups prior to treatment (2 animals were excluded due to surgical complications). […] Drugs were dissolved in DMSO and ethanol or corn oil and then diluted with sterile saline for injections. This experiment was done in a blinded manner: compounds were coded to ensure the researchers performing the experiments were unaware of the treatment being administered to each animal. […] Mice were anesthetized using ketamine/xylazine rodent cocktail and then euthanized by transcardial perfusion with 4% PFA, 2% glutaraldehyde, and 0.1 M sodium cacodylate. […] The number of myelinated axons per unit areas was counted from sections in the middle of each lesion and then averaged over each treatment group. […]
Focal demyelination in the dorsal column of the spinal cord was induced by the injection of 1% LPC solution. […] The number of myelinated axons per unit area was counted from sections obtained from the middle of each lesion and then averaged over each treatment group. All sections within the lesion area were scored. […]

With `CCN(C/C=C\c1ccc(C2CCCCC2)c(Cl)c1)C1CCCCC1` [Cis-N-cyclohexyl-N-ethyl-3-(3-chloro-4-cyclohexylphenyl)prop-2-enylamine] the “myelin formation in the demyelinated lesion, electron microscopy (FIG. 7C)” value was “new myelin formation” and the “number of toluidine Blue-stained newly myelinated fibers within the spinal cord (FIG. 7F)” value was “significantly increased”.
